# Target: human FLAP (Homo sapiens (Human), UniProt P20292)
# Experiment: FLAP binding assay (HTRF format)
# Settings: Table 6 (additional runs), human FLAP wild type
# Method: The ability of the compounds of the present invention to treat a FLAP-mediated disease and/or disorder, or associated symptoms or complications thereof, was determined using the following procedures. Binding assay data represent the average value obtained from two different assay plates, with samples run in duplicate on each plate. Human whole blood assay data represent a single replicate on an assay plate using whole blood from at least one healthy donor.
# Data are expressed as a HTRF ratio.
# Sequence of human FLAP (P20292 whole entry): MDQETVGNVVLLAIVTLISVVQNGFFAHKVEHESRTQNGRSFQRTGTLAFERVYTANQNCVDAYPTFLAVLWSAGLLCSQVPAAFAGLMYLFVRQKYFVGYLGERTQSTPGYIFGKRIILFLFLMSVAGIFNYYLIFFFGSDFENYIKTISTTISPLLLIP
row,Structure (SMILES),Ki [nM]
1,"CN1CCCC[C@@H](NS(=O)(=O)c2ccccc2-c2ccc(-c3cnc(N)cn3)c(F)c2)C1=O [Example 29, (S)-4′-(5-Aminopyrazin-2-yl)-3′-fluoro-N-[(3S)-1-methyl-2-oxoazepan-3-yl]biphenyl-2-sulfonamide]",63.2
2,"Nc1cnc(-c2ccc(-c3ccccc3NS(=O)(=O)C3CC3)cc2F)cn1 [Example 38, N-(4′-(5-aminopyrazin-2-yl)-3′-fluoro-[1,1′-biphenyl]-2-yl)cyclopropanesulfonamide]",28.8
3,"Nc1cnc(-c2ccc(-c3ccccc3NS(=O)(=O)C(F)(F)F)cc2F)cn1 [Example 41, N-[4′-(5-Aminopyrazin-2-yl)-3′-fluorobiphenyl-2-yl]-1,1,1-trifluoromethanesulfonamide]",10.6
4,"CN(C)S(=O)(=O)c1ccccc1-c1ccc(-c2cnc(N)cn2)c(F)c1 [Example 42, 4′-(5-Aminopyrazin-2-yl)-3′-fluoro-N,N-dimethylbiphenyl-2-sulfonamide]",10.2
5,"Nc1cnc(-c2ccc(-c3ccccc3S(=O)(=O)N3CCOCC3)cc2F)cn1 [Example 44, 5-[3-Fluoro-2′-(morpholin-4-ylsulfonyl)biphenyl-4-yl]pyrazin-2-amine]",6.5
6,"CCN(CC)S(=O)(=O)c1ccccc1-c1ccc(-c2cnc(N)cn2)c(F)c1 [Example 47, 4′-(5-Aminopyrazin-2-yl)-N,N-diethyl-3′-fluorobiphenyl-2-sulfonamide]",1.6
7,"Nc1cnc(-c2ccc(-c3ccccc3S(=O)(=O)N3CCCC3)cc2F)cn1 [Example 48, 5-[3-Fluoro-2′-(pyrrolidin-1-ylsulfonyl)biphenyl-4-yl]pyrazin-2-amine]",7
8,"Nc1cnc(-c2ccc(-c3ccccc3S(=O)(=O)N3CCCC(F)(F)C3)cc2F)cn1 [Example 50, 5-{2′-[(3,3-Difluoropiperidin-1-yl)sulfonyl)-3-fluorobiphenyl-4-yl}pyrazin-2-amine]",1.3
9,"Nc1cnc(-c2ccc(-c3ccccc3S(=O)(=O)N3CCC(F)(F)C3)cc2F)cn1 [Example 51, 5-{2′-[(3,3-Difluoropyrrolidin-1-yl)sulfonyl]-3-fluorobiphenyl-4-yl}pyrazin-2-amine]",3.8
10,"Nc1cnc(-c2ccc(-c3ccccc3S(=O)(=O)N3CC(F)(F)C3)cc2F)cn1 [Example 52, 5-{2′-[(3,3-Difluoroazetidin-1-yl)sulfonyl]-3-fluorobiphenyl-4-yl}pyrazin-2-amine]",3.7
11,"Nc1cnc(-c2ccc(-c3ccccc3S(=O)(=O)N3CCCCCC3)cc2F)cn1 [Example 53, 5-[2′-(Azepan-1-ylsulfonyl)-3-fluorobiphenyl-4-yl]pyrazin-2-amine]",3.3
12,"Nc1cnc(-c2ccc(-c3ccccc3S(=O)(=O)N3CCC(O)(C(F)(F)F)CC3)cc2F)cn1 [Example 55, 1-{[4′-(5-Aminopyrazin-2-yl)-3′-fluorobiphenyl-2-yl]sulfonyl}-4-(trifluoromethyl)piperidin-4-ol]",1.1
13,"CS(=O)(=O)N1CCN(S(=O)(=O)c2ccccc2-c2ccc(-c3cnc(N)cn3)c(F)c2)CC1 [Example 56, 5-(3-Fluoro-2′-{[4-(methylsulfonyl)piperazin-1-yl]sulfonyl}biphenyl-4-yl)pyrazin-2-amine]",8.8
14,"CC(=O)N1CCN(S(=O)(=O)c2ccccc2-c2ccc(-c3cnc(N)cn3)c(F)c2)CC1 [Example 57, 5-{2′-[(4-Acetylpiperazin-1-yl)sulfonyl]-3-fluorobiphenyl-4-yl}pyrazin-2-amine]",13.4
15,"Nc1cnc(-c2ccc(-c3ccccc3S(=O)(=O)N3CCN(C(=O)C4CC4)CC3)cc2F)cn1 [Example 58, 5-(2′-{[4-(Cyclopropylcarbonyl)piperazin-1-yl]sulfonyl}-3-fluoroblphenyl-4-yl)pyrazin-2-amine]",4.6
16,"Nc1cnc(-c2ccc(-c3ccccc3S(=O)(=O)N3CCC(N)CC3)cc2F)cn1 [Example 65, 5-{2′-[(4-Aminopiperidin-1-yl)sulfonyl]-3-fluorobiphenyl-4-yl}pyrazin-2-amine]",63.3
17,"Nc1cnc(-c2ccc(-c3ccccc3S(=O)(=O)N3CCNC(=O)C3)cc2F)cn1 [Example 66, 4-{1,4′-(5-Aminopyrazin-2-yl)-3′-fluorobiphenyl-2-ylisulfonyl}piperazin-2-one]",26.6
18,"Nc1cnc(-c2ccc(-c3ccccc3S(=O)(=O)N3CCC(CCO)CC3)cc2F)cn1 [Example 69, 2-(1-{[4′-(5-Aminopyrazin-2-yl)-3′-fluorobiphenyl-2-yl]sulfonyl}piperidin-4-yl)ethanol]",0.9
19,"CNC1CCN(S(=O)(=O)c2ccccc2-c2ccc(-c3cnc(N)cn3)c(F)c2)CC1 [Example 72, 5-{3-Fluoro-2′-{[4-(methylamino)piperidin-1-yl]sulfonyl}biphenyl-4-yl)pyrazin.-2-amine]",120

# Next, values leading:
row,Ki [nM],Structure (SMILES)
1,10.7,"CC(=O)NC1CCN(S(=O)(=O)c2ccccc2-c2ccc(-c3cnc(N)cn3)c(F)c2)CC1 [Example 75, N-(1-{[4′-(5-Aminopyrazin-2′yl)-3′-fluorobiphenyl-2-yl]sulfonyl}piperidin-4-yl)acetamide]"
2,0.7,"Nc1cnc(-c2ccc(-c3ccccc3S(=O)(=O)N[C@@H](CO)[C@@H](O)c3ccccc3)cc2F)cn1 [Example 78, 4′-(5-Aminopyrazin-2-yl)-3′-fluoro-N-[(1S,2S)-2-hydroxy-1-(hydroxymethyl)-2-phenylethyl]biphenyl-2-sulfonamide]"
3,5.3,"CC(C)C[C@@H](CO)NS(=O)(=O)c1ccccc1-c1ccc(-c2cnc(N)cn2)c(F)c1 [Example 79, 4′-(5-Aminopyrazin-2-yl)-3′-fluoro-N-[(1S)-1-(hydroxymethyl)-3-methylbutyl]biphenyl-2-sulfonamide]"
4,3.9,"Nc1cnc(-c2ccc(-c3ccccc3S(=O)(=O)NCCCO)cc2F)cn1 [Example 80, 4′-(5-Aminopyrazin-2-yl)-3′-fluoro-N-(3-hydroxypropyl)biphenyl-2-sulfonamide]"
5,6.4,"Nc1cnc(-c2ccc(-c3ccccc3S(=O)(=O)N[C@H](CO)c3ccccc3)cc2F)cn1 [Example 81, 4′-(5-Aminopyrazin-2-yl)-3′-fluoro-N-[(1S)-2-hydroxy-1-phenylethyl]biphenyl-2-sulfonamide]"
6,0.7,"Nc1cnc(-c2ccc(-c3ccccc3S(=O)(=O)N[C@@H](CO)c3ccccc3)cc2F)cn1 [Example 82, 4′-(5-Aminopyrazin-2-yl)-3′-fluoro-N-[(1R)-2-hydroxy-1-phenylethyl]biphenyl-2-sulfonamide]"
7,1.9,"Nc1cnc(-c2ccc(-c3ccccc3S(=O)(=O)N[C@@H]3CCCC[C@H]3O)cc2F)cn1 [Example 85, 4′-(5-Aminopyrazin-2-yl)-3′-fluoro-N-[(1R,2R)-2-hydroxycyclohexyl]biphenyl-2-sulfonamide]"
8,2.6,"CC[C@H](CO)NS(=O)(=O)c1ccccc1-c1ccc(-c2cnc(N)cn2)c(F)c1 [Example 86, 4′-(5-Aminopyrazin-2-yl)-3′-fluoro-N-[(1R)-1-(hydroxymethyl)propyl]biphenyl-2-sulfonamide]"
9,3.2,"Nc1cnc(-c2ccc(-c3ccccc3S(=O)(=O)N[C@@H]3CCCC[C@@H]3O)cc2F)cn1 [Example 87, 4′-(5-Aminopyrazin-2-yl)-3′-fluoro-N-[(1R,2S)-2-hydroxycyclohexyl]biphenyl-2-sulfonamide]"
10,6.2,"Nc1cnc(-c2ccc(-c3ccccc3S(=O)(=O)NCCO)cc2F)cn1 [Example 88, 4′-(5-Aminopyrazin-2-yl)-3′-fluoro-N-(2-hydroxyethyl)biphenyl-2-sulfonamide]"
11,4.9,"Nc1cnc(-c2ccc(-c3ccccc3S(=O)(=O)NC3CC3)cc2F)cn1 [Example 89, 4′-(5-Aminopyrazin-2-yl)-N-cyclopropyl-3′-fluoroblphenyl-2-sulfonamide]"
12,0.9,"Nc1cnc(-c2ccc(-c3ccccc3S(=O)(=O)NCC3CC3)cc2F)cn1 [Example 90, 4′-(5-Aminopyrazin-2-yl)-N-(cyclopropylmethyl)-3′-fluorobiphenyl-2-sulfonamide]"
13,354,"CS(=O)(=O)NS(=O)(=O)c1ccccc1-c1ccc(-c2cnc(N)cn2)c(F)c1 [Example 96, 4′-(5-Aminopyrazin-2-yl)-3′-fluoro-N-(methylsulfonyl)biphenyl-2-sulfonamide]"
14,6.6,"C[C@@H](O)CNS(=O)(=O)c1ccccc1-c1ccc(-c2cnc(N)cn2)c(F)c1 [Example 97, (R)-4′-(5-aminopyrazin-2-yl)-3′-fluoro-N-(2-hydroxypropyl)-[1,1′-biphenyl]-2-sulfonamide]"
15,6.1,"C[C@H](O)CNS(=O)(=O)c1ccccc1-c1ccc(-c2cnc(N)cn2)c(F)c1 [Example 98, (S)-4′-(5-aminopyrazin-2-yl)-3′-fluoro-N-(2-hydroxypropyl)-[1,1′-biphenyl]-2-sulfonamide]"
16,1.6,"Nc1cnc(-c2ccc(-c3ccccc3S(=O)(=O)NCC3(O)CCCCC3)cc2F)cn1 [Example 99, 4′-(5-Aminopyrazin-2-yl)-3′-fluoro-N-[(1-hydroxycyclohexyl)methyl]biphenyl-2-sulfonamide]"
17,0.8,"CC(C)(CO)NS(=O)(=O)c1ccccc1-c1ccc(-c2cnc(N)cn2)c(F)c1 [Example 100, 4′-(5-Aminopyrazin-2-yl)-3′-fluoro-N-(2-hydroxy-1,1-dimethylethyl)biphenyl-2-sulfonamide]"
18,1.8,"CC(C)(O)CNS(=O)(=O)c1ccccc1-c1ccc(-c2cnc(N)cn2)c(F)c1 [Example 101, 4′-(5-Aminopyrazin-2-yl)-3′-fluoro-N-(2-hydroxy-2-methylpropyl)biphenyl-2-sulfonamide]"
19,0.4,"CC(C)(CCO)NS(=O)(=O)c1ccccc1-c1ccc(-c2cnc(N)cn2)c(F)c1 [Example 102, 4′-(5-Aminopyrazin-2-yl)-3′-fluoro-N-(3-hydroxy-1,1-dimethylpropyl)biphenyl-2-sulfonamide]"
20,0.3,"CC(C)(CO)CNS(=O)(=O)c1ccccc1-c1ccc(-c2cnc(N)cn2)c(F)c1 [Example 103, 4′-(5-Aminopyrazin-2-yl)-3′-fluoro-N-(3-hydroxy-2,2-dimethylpropyl)biphenyl-2-sulfonamide]"

# Same assay, conditions: human FLAP wild type, a calculated value of 0.000 indicates Ki less than 1 nM
row,Ki [nM],Structure (SMILES)
1,< 1,"CC(C)(CCO)NS(=O)(=O)c1ccccc1-c1ccc(-c2cnc(N)cn2)c(F)c1 [Example 102, 4′-(5-Aminopyrazin-2-yl)-3′-fluoro-N-(3-hydroxy-1,1-dimethylpropyl)biphenyl-2-sulfonamide]"
2,< 1,"CC(C)(CO)CNS(=O)(=O)c1ccccc1-c1ccc(-c2cnc(N)cn2)c(F)c1 [Example 103, 4′-(5-Aminopyrazin-2-yl)-3′-fluoro-N-(3-hydroxy-2,2-dimethylpropyl)biphenyl-2-sulfonamide]"

# — patent US9745328B2, “Flap modulators” (JANSSEN PHARMACEUTICA NV, priority 2013, dated 2017)
